# Test results reported in PMC5242521 (PLoS ONE, 2017).
# Like-named read-outs stand apart in the source and are kept apart here.
# Columns and labels:
# OCT1 [1] = target: T1, OCT1 (Homo sapiens, UniProt O15245); test: Trans-stimulation assay of TEA uptake in OCT1-transfected HEK293 cells; type: cell-based; conditions: pre-loading 60 min with 100 μM pyrethroid or 2 mM unlabeled TEA; HEK-OCT1 cells
# T1 sequence (O15245 1-554): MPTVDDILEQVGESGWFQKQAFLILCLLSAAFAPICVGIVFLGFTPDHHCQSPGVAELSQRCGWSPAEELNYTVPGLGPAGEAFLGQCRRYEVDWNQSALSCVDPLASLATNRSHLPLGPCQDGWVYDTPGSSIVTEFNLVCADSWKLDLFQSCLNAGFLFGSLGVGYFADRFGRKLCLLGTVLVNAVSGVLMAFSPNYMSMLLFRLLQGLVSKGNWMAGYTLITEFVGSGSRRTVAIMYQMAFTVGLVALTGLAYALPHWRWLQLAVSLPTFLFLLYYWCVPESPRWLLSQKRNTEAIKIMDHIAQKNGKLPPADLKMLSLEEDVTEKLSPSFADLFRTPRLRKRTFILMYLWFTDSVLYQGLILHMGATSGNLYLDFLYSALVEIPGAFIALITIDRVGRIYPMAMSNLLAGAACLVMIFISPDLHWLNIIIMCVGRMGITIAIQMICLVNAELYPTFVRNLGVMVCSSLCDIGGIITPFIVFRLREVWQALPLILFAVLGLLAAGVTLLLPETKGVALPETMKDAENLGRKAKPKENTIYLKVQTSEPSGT
# Method: Trans-stimulation assays were performed as previously described. Briefly, OCT1-transfected HEK293 cells were first preloaded with 2 mM unlabeled TEA or 100 μM pyrethroid for 60 min at 37°c in the transport assay medium described above. After washing twice with PBS, cells were next re-incubated in transport assay medium containing 29 μM [1-^14C]-TEA for 5 min at 37°C. After washing twice with PBS, cells were lysed in distilled water and intracellular accumulation of [1-^14C]-TEA was then determined by scintillation counting.
# (§1) Intracellular accumulation of TEA was then determined by scintillation counting. […] After washing, cells were next re-incubated with 29 μM [1-^14C]-TEA for 5 min at 37°C. Intracellular accumulation of [1-^14C]-TEA was then determined by scintillation counting.
# MATE1 = target: T2, MATE1 (Homo sapiens, UniProt Q96FL8); test: MATE1 activity: TEA accumulation in HEK-MATE1 cells; type: cell-based; conditions: for inhibition at 100 μM: human, pH 8.4
# T2 construct: host or cells: HEK293
# T2 sequence (Q96FL8 1-570): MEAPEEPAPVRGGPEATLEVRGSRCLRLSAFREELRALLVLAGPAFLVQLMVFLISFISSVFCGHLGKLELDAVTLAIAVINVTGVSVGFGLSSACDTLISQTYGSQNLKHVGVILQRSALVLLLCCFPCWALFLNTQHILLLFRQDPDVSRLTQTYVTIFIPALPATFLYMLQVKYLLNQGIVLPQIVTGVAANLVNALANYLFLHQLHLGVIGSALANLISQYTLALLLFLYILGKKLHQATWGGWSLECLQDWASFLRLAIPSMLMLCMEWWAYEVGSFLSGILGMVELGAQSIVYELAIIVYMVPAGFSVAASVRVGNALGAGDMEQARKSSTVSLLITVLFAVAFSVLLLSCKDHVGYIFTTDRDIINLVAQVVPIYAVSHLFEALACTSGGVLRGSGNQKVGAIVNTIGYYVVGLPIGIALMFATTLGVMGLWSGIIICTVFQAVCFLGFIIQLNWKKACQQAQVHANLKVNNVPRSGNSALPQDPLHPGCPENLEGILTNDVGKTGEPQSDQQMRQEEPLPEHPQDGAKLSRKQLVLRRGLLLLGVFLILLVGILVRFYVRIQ
# Method: The initial tested concentration of pyrethroids was 100 μM.
# P-gp = P-gp (Homo sapiens, UniProt P08183); test: P-gp activity: rhodamine 123 accumulation in MCF7R cells; conditions: for inhibition at 100 μM: human, pH 7.4
# Chain of P-gp (P08183 whole entry): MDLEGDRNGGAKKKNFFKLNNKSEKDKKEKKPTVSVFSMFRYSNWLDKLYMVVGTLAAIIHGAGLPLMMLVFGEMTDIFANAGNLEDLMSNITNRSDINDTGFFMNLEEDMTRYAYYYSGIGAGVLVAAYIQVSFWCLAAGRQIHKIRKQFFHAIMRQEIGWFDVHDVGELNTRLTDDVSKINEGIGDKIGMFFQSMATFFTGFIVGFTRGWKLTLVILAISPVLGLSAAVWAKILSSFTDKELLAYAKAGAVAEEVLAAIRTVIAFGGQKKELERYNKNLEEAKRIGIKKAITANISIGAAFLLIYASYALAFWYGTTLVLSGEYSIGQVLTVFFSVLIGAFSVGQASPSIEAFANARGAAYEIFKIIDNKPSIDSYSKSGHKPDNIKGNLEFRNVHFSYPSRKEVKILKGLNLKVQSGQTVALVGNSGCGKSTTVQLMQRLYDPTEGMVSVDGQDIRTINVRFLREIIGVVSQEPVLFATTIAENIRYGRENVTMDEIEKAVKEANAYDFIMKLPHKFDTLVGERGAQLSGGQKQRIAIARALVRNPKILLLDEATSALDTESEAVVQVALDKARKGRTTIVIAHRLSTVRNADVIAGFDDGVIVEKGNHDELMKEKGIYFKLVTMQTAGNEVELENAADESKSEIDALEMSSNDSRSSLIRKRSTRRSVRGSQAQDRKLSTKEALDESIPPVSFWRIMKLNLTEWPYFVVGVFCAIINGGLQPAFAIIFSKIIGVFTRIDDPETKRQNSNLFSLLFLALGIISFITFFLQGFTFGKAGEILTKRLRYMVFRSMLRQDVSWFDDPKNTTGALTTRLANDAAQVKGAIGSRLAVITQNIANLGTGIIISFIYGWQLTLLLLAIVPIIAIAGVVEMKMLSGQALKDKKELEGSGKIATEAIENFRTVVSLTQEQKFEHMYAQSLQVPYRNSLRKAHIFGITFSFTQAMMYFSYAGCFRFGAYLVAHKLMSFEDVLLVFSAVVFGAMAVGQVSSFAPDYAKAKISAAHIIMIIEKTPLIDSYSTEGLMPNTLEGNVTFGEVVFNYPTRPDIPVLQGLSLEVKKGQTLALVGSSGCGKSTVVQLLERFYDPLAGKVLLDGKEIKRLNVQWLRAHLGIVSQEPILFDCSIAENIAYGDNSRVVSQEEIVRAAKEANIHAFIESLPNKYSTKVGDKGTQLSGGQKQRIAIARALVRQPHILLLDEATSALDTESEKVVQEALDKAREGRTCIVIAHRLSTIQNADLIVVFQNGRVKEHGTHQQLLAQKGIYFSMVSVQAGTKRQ
# Method: The effects of pyrethroids on activity of ABC and SLC transporters were determined through measuring cellular accumulation or retention of fluorescent or radiolabeled reference substrates for transporters, in the presence or absence of reference inhibitors, as previously described. The nature of cells and reference substrates and inhibitors used for transport assays are summarized in S3 Table.
# For accumulation assays (performed for all transporters, excepted BCRP), transporter-expressing cells usually cultured in 48-well plates were first incubated at 37°C with reference substrates in the absence (control) or presence of pyrethroids or reference inhibitors, in a well-defined transport assay medium, consisting of 136 mM NaCl, 5.3 mM KCl, 1.1mM KH2PO4, 0.8 mM MgSO4, 1.8 mM CaCl2, 10 mM HEPES, 11 mM D-glucose and adjusted to pH = 7.4 (excepted for MATE transporter assays, for which pH was set to 8.4). The nature of substrates and reference inhibitors and the incubation times with substrates, that varied according to the transporter, were selected in agreement with previous studies and are indicated in S3 Table. The total incubation volume with substrates was 200 μL/well. After washing twice in phosphate-buffered saline (PBS) (200 μL/well/washing), cells were lysed in distilled water (155 μL/well). An aliquot of cell lysate (5 μL) was then taken for determining cellular protein content by the Bradford method. The rest of lysate (150 μL/well) was used for measuring intracellular accumulation of reference substrates by scintillation counting or spectrofluorimetry using a SpectraMax Gemini SX spectrofluorometer (Molecular Devices, Sunnyvale, CA, USA) (excitation and emission wavelengths were 485 and 535 nm, respectively, for rhodamine 123 and fluorescein, and 355 and 460 nm, respectively, for DAPI).
# Intracellular concentrations of reference substrates were initially expressed as fluorescence arbitrary units (for fluorescent dye substrates) or as moles (for radiolabeled substrates) and normalized to cellular protein content, determined by the Bradford method. They were finally used for calculating percentage of transporter activity, according to the following equations [41, 45]: %ABCtransporter activity=([Substrateref inh]-[Substratepyrethroid])×100/([Substrateref inh]-[Substratecontrol]) (1) %SLC transporter activity=([Substratepyrethroid]-[Substratref inh])×100/([Substratecontrol]-[Substrateref inh]) (2) with [Substratepyrethroid] = cellular concentration of reference substrate in the presence of pyrethroid, [Substrateref inh] = cellular concentration of reference substrate in the presence of reference inhibitor and [Substratecontrol] = cellular concentration of reference substrate in control cells not exposed to pyrethroid or reference inhibitor.
# The initial tested concentration of pyrethroids was 100 μM. […] Such concentrations were calculated using GraphPad Prism software (GraphPad Software, La Jolla, CA), through nonlinear regression based on the four parameter logistic function using the following equations: […]
# OCT1 [2] = target: T1, OCT1; test: Cis-inhibition of OCT1-mediated TEA accumulation in HEK-OCT1 cells; type: cell-based; conditions: pyrethroid 100 μM; 29 μM [14C]-TEA, 5 min
# Method: as §1
SMILES,effect of pre-loading on radiolabeled TEA uptake (trans-stimulation assay) (OCT1 [1]),IC50 (MATE1),"inhibition at 100 μM (MATE1; pyrethroid 100 μM, HEK-MATE1 cells, TEA, read-out: inhibition of MATE1 activity)",IC50 (P-gp),inhibition at 100 μM (P-gp),effect on P-gp activity (P-gp; pyrethroid 100 μM),cis-effect on TEA accumulation in HEK-OCT1 cells (OCT1 [2]),inhibition at 100 μM (MATE1)
CC(C)=CC1C(C(=O)OCN2C(=O)C3=C(CCCC3)C2=O)C1(C)C (stereo not drawn) [tetramethrin],trans-inhibition,47.5 µM,> 79%,> 100 µM,24.5%,moderately inhibited,–,–
C=CCC1=C(C)C(OC(=O)C2C(C=C(C)C)C2(C)C)CC1=O (stereo not drawn) [allethrin],trans-inhibition,50.2 µM,–,> 100 µM,32.7%,–,markedly cis-inhibit,> 79%
